Converted amounts (≈) assume the structure as drawn. Read-outs that look alike come from different tables or passages of the source.
What was measured:
[1] = test system: Klebsiella pneumoniae B454; assay: MIC; type: cell-based; conditions: Klebsiella pneumoniae, B454; caMHB; replicates listed
Experimental: (§1) Minimal inhibition concentration (MIC) assays were performed in accordance with CLSI standards, using cation-adjusted Mueller Hinton broth (caMHB; Sigma Aldrich) unless otherwise specified. Induction of pore expression in hyperporinated strains E. coli GKCW101 and GKCW102 was performed by addition of 0.1% (w/v) L-arabinose to cultures at OD600 ~ 0.3, with caMHB as the culture medium.

[2] = test system: Citrobacter freundii AR0116; assay: MIC; type: cell-based; conditions: Citrobacter freundii, AR0116; caMHB; replicates listed
Experimental: as §1

[3] = test system: Pseudomonas aeruginosa NCTC 13437; assay: MIC; type: cell-based; conditions: Pseudomonas aeruginosa, NCTC13437; caMHB; replicates listed
Experimental: as §1

[4] = test system: Enterobacter cloacae AR0038; assay: MIC; type: cell-based; conditions: Enterobacter cloacae, AR0038; caMHB; replicates listed
Experimental: as §1

[5] = test system: Escherichia coli NCTC 13441; assay: MIC; type: cell-based; conditions: Escherichia coli, NCTC13441; caMHB; replicates listed
Experimental: as §1

[6] = test system: Proteus mirabilis AR159; assay: MIC; type: cell-based; conditions: Proteus mirabilis, AR159; caMHB; replicates listed
Experimental: as §1

[7] = test system: Acinetobacter baumannii AR0275; assay: MIC; type: cell-based; conditions: Acinetobacter baumannii, AR0275; caMHB; replicates listed
Experimental: as §1

[8] = test system: Escherichia coli ATCC BAA-2469; assay: MIC; type: cell-based; conditions: Escherichia coli, ATCCBAA2469; caMHB; replicates listed
Experimental: as §1

[9] = test system: Klebsiella pneumoniae KPNIH1; assay: MIC; type: cell-based; conditions: caMHB, replicates listed
Experimental: as §1

[10] = test system: Acinetobacter baumannii NCTC 12156; assay: MIC; type: cell-based; conditions: Acinetobacter baumannii, NCTC12156; caMHB; replicates listed
Experimental: as §1

[11] = test system: Enterobacter cloacae KPC114; assay: MIC; type: cell-based; conditions: Enterobacter cloacae, KPC114, read-out: MIC Enterobacter cloacae KPC114
Experimental: as §1

[12] = test system: E. coli GKCW101 (WT); conditions: caMHB; biological replicates or their range
Experimental: (§2) To evaluate the engagement of EcPBP3 by a bicyclic peptide in whole cells lacking the outer membrane permeability barrier, peptides were screened in ‘hyperporinated’ E. coli strains in which a constitutively open FhuA pore (FhuAΔC/Δ4L, lacking N-terminal cork domain and external loops) was chromosomally expressed under control of an arabinose-inducible promoter.
as §1

[13] = test system: E. coli GKCW102 (EcPore); conditions: caMHB, biological replicates or their range
Experimental: as §2, §1

[14] = test system: PBPs in E. coli; assay: Bocillin FL staining of PBPs extracted from bacterial membranes; type: binding, E. coli strain DC2; conditions: peptides at 3 µM, membranes of E. coli DC2
Experimental: Staining of PBPs extracted from bacterial membranes with Bocillin FL was used to determine the binding of peptide 2 (and its all-D analogue) to other PBPs in E. coli[8].
Method was adapted from that described by Kocaoglu and Carlson[8]. E. coli strain DC2 cells were grown overnight at 37 °C then diluted 100-fold and allowed to grow at 37 °C to an OD600 of 0.5 in Lysogeny broth (LB). The cells were then centrifuged (3220 x g for 10 min at room temperature) and washed once in PBS (pH 7.4) then pelleted and resuspended in ice-cold PBS. Cells were sonicated (Fisherbrand™ Model 505 Sonic Dismembrator) on ice for five 10 s intervals with 15 s cooling time in between rounds. The membranes were collected by centrifugation (21,000 x g for 15 min at 4 °C) and resuspended the pellet in 100 µL PBS using a blunt needle. The resuspended membranes were incubated with the indicated compound for 15 min at room temperature then 10 µg ml^–1 BOCILLIN-Fl (Invitrogen) was added and reacted with the resuspended membranes for 10 min. […] The total protein content of each condition was normalised to 2.5 mg ml^–1 by measuring the absorbance at A280 and adjusting where necessary with the addition of PBS. […] Following fluorescence imaging, the gel was stained with InstantBlue Ultrafast protein stain (Abcam), washed twice in water and imaged in brightfield with an iBright FL1500.

[15] = molecular target: T1, EcPBP3 (Escherichia coli, UniProt P0AD68); assay: SPR binding assay on immobilised EcPBP3; conditions: 37 °C, kinetic fitting; NB = no binding at 2500 nM (Tables S-4, S-5) or 5000 nM (Table 1); read-out: Kd (nM) by SPR (geomean)
T1 construct: For assays, selections and SPR a construct with residues 60–588 which has the N-terminal domain, but not the transmembrane helix, was used; made in house
T1 sequence (P0AD68 60-588): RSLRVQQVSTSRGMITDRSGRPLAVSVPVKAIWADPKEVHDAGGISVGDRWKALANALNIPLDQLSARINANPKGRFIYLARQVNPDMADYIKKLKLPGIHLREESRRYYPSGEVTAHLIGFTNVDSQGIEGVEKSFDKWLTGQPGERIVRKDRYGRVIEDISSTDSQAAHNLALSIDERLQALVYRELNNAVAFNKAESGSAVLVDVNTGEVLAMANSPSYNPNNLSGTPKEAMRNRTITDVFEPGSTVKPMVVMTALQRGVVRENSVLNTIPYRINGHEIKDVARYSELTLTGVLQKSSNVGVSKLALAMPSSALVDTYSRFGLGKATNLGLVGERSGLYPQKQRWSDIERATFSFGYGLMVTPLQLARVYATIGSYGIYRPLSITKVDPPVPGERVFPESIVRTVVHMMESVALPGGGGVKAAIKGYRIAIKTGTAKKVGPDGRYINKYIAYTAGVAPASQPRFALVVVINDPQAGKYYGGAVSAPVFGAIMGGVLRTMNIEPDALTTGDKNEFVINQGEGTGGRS
In short: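 EcPBP3 amine-coupled to CM5 chip (1500-2500 RU); compounds injected at 37 °C in 10 mM HEPES pH 8.0, 200 mM NaCl, 0.05% Tween-20, 2% DMSO, 50 μL min^–1, 150 s contact, 2400 s dissociation. Double-referenced sensorgrams kinetically fitted for Kd; geometric mean of ≥2 biological replicates.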

[16] = molecular target: T1, EcPBP3; assay: Fluorescence polarisation competition assay with fluorescent Bicycle tracer (tracer 1 / BCY12820); type: binding; conditions: protein 9.4 nM sets sensitivity limit, top concentration 5 µM, read-out: Ki (nM) by fluorescence polarisation with tracer 1 (BCY12820 as tracer), Geometric mean (Lower 95% CI; Upper 95% CI, n=number of values)
In short: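 Unlabelled peptide competes with fluorescent Bicycle tracer (1 nM, as added) for EcPBP3 (9.4 nM, as added) in 10 mM HEPES, 2% glycerol, 300 mM NaCl, pH 8.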

[17] = molecular target: T1, EcPBP3; assay: Fluorescence polarisation competition assay with BOCILLIN-FL as tracer; type: binding; conditions: competition format, NB, non-binder (100 μM top concentration)
Experimental: Binding of output peptides to EcPBP3 was evaluated using a fluorescence polarisation (FP) assay.
[…] 10 µL of protein (9.4 nM) was mixed with either 5 µL of peptide or 5 µL of buffer and then the assay was initiated by the addition of 10 µL of tracer (1 nM) (final volume 25 µL), in a black 384 low bind, low volume plate (Corning). The buffer was 10 mM HEPES (Sigma), 2% (v/v) glycerol (Sigma), 300 mM NaCl (Sigma), adjusted to pH 8. The plate was incubated for 1 h at 25 °C and then read in a PHERAstar FS (BMG) using with an “FP 485 520 520” optic module (excitation 485 nm, emission 520 nm). The gain was determined immediately prior to the read on a tracer-only well.
Dotmatics (Dotmatics) workflows performing the above calculations were used to process the data. Values quoted are the geometric means of at least 2 repeats.

[18] = test system: E. coli ATCC 25922; assay: MIC, wild-type strain; type: cell-based, Escherichia coli; conditions: MHB; biological replicates or their range
Experimental: as §1

Row | Structure (SMILES) | MIC [1] | MIC [2] | MIC [3] | MIC [4] | MIC [5] | MIC [6] | MIC [7] | MIC [8] | MIC [9] | MIC [10] | MIC [11] | MIC E. coli GKCW101 (WT) [12] | MIC E. coli GKCW102 (EcPore) [13] | MIC E. coli GKCW102 (EcPore) ([13]; listed as peptide 2) | Binding to other PBPs in E. coli (Bocillin FL staining) [14] | Kd [15] | Ki [16] | IC50 (nM) by fluorescence polarisation with Bocillin FL as tracer, Geometric mean (Lower 95% CI of geo. Mean; Upper 95% CI of geo. Mean, n=number of values) [17] | IC50 ([17]; read-out: IC50 (nM) by fluorescence polarisation with Bocillin FL as tracer, Geometric mean (Lower 95% CI of geo. Mean; Upper 95% CI of geo. Mean, n=number of values)) | MIC E. coli ATCC 25922 [18]
1 | C[C@H]1COc2c(N3CCN(C)CC3)c(F)cc3c(=O)c(C(=O)O)cn1c23 [Levofloxacin, reference compound] | > 2 µg/mL | > 2 µg/mL | 2.2 µg/mL (≈ 6.09 µM) | > 2 µg/mL | > 2 µg/mL | 2.2 µg/mL (≈ 6.09 µM) | 2.2 µg/mL (≈ 6.09 µM) | > 2 µg/mL | > 2 µg/mL | – | – | – | – | – | – | – | – | – | – | –
2 | C[C@@H](O)[C@H]1C(=O)N2C(C(=O)O)=C(S[C@@H]3CN[C@H](C(=O)N(C)C)C3)[C@H](C)[C@H]12 [Meropenem, reference compound] | – | > 2 µg/mL | – | > 2 µg/mL | – | > 2 µg/mL | > 2 µg/mL | > 2 µg/mL | – | 1.1 µg/mL (≈ 2.87 µM) | > 2 µg/mL | – | – | – | – | – | – | – | – | –
3 | CC(C)[C@@H]1NC(=O)[C@H](Cc2c[nH]c3ccccc23)NC(=O)[C@@H]2CCCN2C(=O)[C@@H]2CSCCC(=O)N3CN(CN(C3)C(=O)CCSC[C@H](NC(=O)[C@H](C)N)C(=O)N[C@@H](CO)C(=O)N[C@@H](Cc3ccccc3)C(=O)N3CCC[C@H]3C(=O)N[C@@H](CCCCN)C(=O)N2)C(=O)CCSC[C@@H](C(=O)N[C@@H](C)C(N)=O)NC(=O)CNC(=O)[C@H](CCC(=O)O)NC1=O [Peptide 2] | – | – | – | – | – | – | – | – | – | – | – | > 128 µg/mL | 0.5 to 2 µg/mL | 0.5 to 2 µg/mL | bound only to the active site of E. coli PBP3 | 5.23 nM | < 9 nM | showed binding to EcPBP3 | 602 nM | > 16 µg/mL

From PMC12120022, “Discovery and chemical optimisation of a potent, Bi-cyclic antimicrobial inhibitor of Escherichia coli PBP3” (Communications Biology, 2025)
